Measurements: US20150157588A1, “Pharmaceutical Composition Comprising Amino-Phenyl-Acetic Acid Octadec-(Z)-9-enyl Ester and Use Thereof for Treating Tumors” (Yeda Research and Development Co., Ltd., priority 2012, published 2015)

What was measured:
[1] = test system: p53 expressing L-12 mouse B cell line; experiment: Apoptosis by hypo-diploid nuclei PI staining, transformed B cell line; assay type: cell-based; settings: 10 or 100 μg per ml in 5% ethanol solution, 48 h
Protocol: Apoptosis was measured by FACS analysis with a hypo-diploid nuclei propidium iodide (PI) staining of an amino-phenyl-acetic acid octadec-(Z)-9-enyl ester treated p53 expressing L-12 mouse B cell line. FIGS. 4A-4C: L-12 cells treated with 0, 10 or 100 μg/ml of amino-phenyl-acetic acid octadec-(Z)-9-enyl ester in ethanol solution, respectively; FIGS. 4D-4F: L-12 cells treated with 0, 10 or 100 μg/ml of the control reagent 4-methyl-piperazino-acetic acid ethyl ester in ethanol solution, respectively; and FIGS. 4G-4I: L-12 cells treated with an ethanol volume corresponding to 0, 10 or 100 μg/ml of amino-phenyl-acetic acid octadec-(Z)-9-enyl ester, respectively. FL2-A is the measure of fluorescence. […]
(§1) B or T-cell apoptosis was detected by flow cytometry. […] The cells were then subjected to flow cytometric analysis; for each sample 10,000 were collected and cell-cycle distribution was analyzed according to relative DNA content (PI staining). […] The cells were then collected, stained by APO-DIRECT TUNNEL kit (Phnxflow, CITY, Calif., USA); mitochondrial potential was measured by DePsipher (R&D Systems, Minneapolis, Minn.) according to the manufacturer's procedure. Intracellular caspase activity was measured by Apostat kit (R&D Systems), according to the manufacturer's procedure. The cells were analyzed by Flow cytometry using FACSort (Becton Dickinson) and CellQuest software (Becton Dickinson). […]

[2] = test system: freshly isolated mouse B cells; experiment: Spontaneous apoptosis by hypo-diploid nuclei PI staining, primary B cells; assay type: cell-based; settings: 1 or 100 μg/ml in ethanol solution
Protocol: Apoptosis was measured by FACS analysis with a hypo-diploid nuclei propidium iodide (PI) staining of freshly isolated mouse B cells treated with amino-phenyl-acetic acid octadec-(Z)-9-enyl ester in ethanol solution. FIGS. 5A-5C: L-12 cells treated with 0, 1 or 100 μg/ml of amino-phenyl-acetic acid octadec-(Z)-9-enyl ester, respectively; FIGS. 5D-5F: L-12 cells treated with 0, 1 or 100 μg/ml of the control reagent 4-methyl-piperazino-acetic acid ethyl ester, respectively; and FIGS. 5G-5I: L-12 cells treated with an ethanol volume corresponding to 0, 1 or to 100 μg/ml of amino-phenyl-acetic acid octadec-(Z)-9-enyl ester in ethanol solution, respectively.
as §1

CCOC(=O)CN1CCN(C)CC1 [4-methyl-piperazino-acetic acid ethyl ester, reference compound]
apoptosis / cell cycle (cells in sub-GO state) [1]: had no effect | spontaneous apoptosis / cell-cycle of primary B cells [2]: had no effect
